Assays:
[1] = biological target: GSK3β kinase (Homo sapiens, UniProt P49841); assay: GSK3β kinase activity (Ser/Thr 09 peptide Z-lyte FRET assay); type: biochemical; details: recombinant kinase, 46 μM ATP, one hour at room temperature; read-out: EC50
[2] = test system: SW480 colon carcinoma cells; assay: Cell viability assay (CellTiter-Glo); details: Homo sapiens; for EC50: SW480, 96 h; for inhibition at 10 µM: SW480, read-out: percent inhibition at 10 μM
[3] = test system: α-smooth muscle actin (aSMA) positive LL29 cells; assay: Inhibition of the fibrotic process: αSMA staining in TGF-β1 treated LL29 fibroblasts from IPF patients; details: Homo sapiens, Fibroblast; for EC50: 96 h; for inhibition at 10 µM: read-out: percentage in parentheses after EC50 >10
[4] = biological target: DYRK1A kinase (Homo sapiens, UniProt Q13627); assay: DYRK1A kinase activity (Ser/Thr 18 peptide Z-lyte FRET assay); type: biochemical; details: recombinant DYRK1A, 30 μM ATP, one hour at room temperature;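 also: kinase activity read as coumarin/fluorescein emission ratio after development step, with unphosphorylated and phosphorylated peptide forms setting 0% and 100% controls, values from dose-response curves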
[5] = test system: IL-6; assay: IL-6 inhibition in LPS-stimulated human peripheral blood mononuclear cells (HTRF); details: Homo sapiens, PBMC; for EC50: 22 h; for inhibition at 10 µM: read-out: percentage in parentheses after EC50 >10
[6] = test system: Wnt-responsive Sp5-Luc reporter in SW480 colon carcinoma cells; assay: Screening assay for Wnt activity (Sp5-Luc reporter gene assay); details: Homo sapiens; for EC50: SW480; for inhibition at 10 µM: SW480, read-out: percent inhibition at 10 μM

Sequence of GSK3β kinase (P49841 whole entry): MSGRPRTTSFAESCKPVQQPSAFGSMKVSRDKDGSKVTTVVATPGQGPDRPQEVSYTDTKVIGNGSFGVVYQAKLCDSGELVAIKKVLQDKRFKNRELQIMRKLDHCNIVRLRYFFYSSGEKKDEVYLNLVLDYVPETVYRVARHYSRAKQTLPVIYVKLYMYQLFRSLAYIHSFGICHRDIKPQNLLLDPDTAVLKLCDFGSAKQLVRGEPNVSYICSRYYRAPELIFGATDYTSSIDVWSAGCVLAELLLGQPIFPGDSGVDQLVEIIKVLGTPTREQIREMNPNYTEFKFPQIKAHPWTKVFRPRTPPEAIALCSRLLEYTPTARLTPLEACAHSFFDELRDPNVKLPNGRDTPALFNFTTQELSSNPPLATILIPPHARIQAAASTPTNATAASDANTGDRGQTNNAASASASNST

| Compound | EC50 [1] | EC50 [2] | EC50 [3] | inhibition at 10 µM [3] | EC50 [4] | EC50 [5] | inhibition at 10 µM [5] | EC50 [6] | inhibition at 10 µM [6] | inhibition at 10 µM [2] |
| --- | --- | --- | --- | --- | --- | --- | --- | --- | --- | --- |
| CN(C)Cc1ccc(C(=O)Nc2cc3cc(-c4cnn(C)c4)cnc3cn2)cc1 [Compound 2890, 4-((Dimethylamino)methyl)-N-(3-(1-methyl-1H-pyrazol-4-yl)-1,7-naphthyridin-6-yl)benzamide] | > 10 µM | 3.86 µM | > 10 µM | 29.4% | 0.035 µM | > 10 µM | 8.6% | 3.58 µM |  |  |
| O=C(Nc1cc2nc(-c3cncc(OCC4CNC4)n3)ccc2cn1)c1ccc(F)cc1 [Compound 892, N-(2-(6-(Azetidin-3-ylmethoxy)pyrazin-2-yl)-1,6-naphthyridin-7-yl)-4-fluorobenzamide] | > 10 µM | 2.06 µM | 3.98 µM |  | 0.142 µM | > 10 µM | 2.5% | 4.28 µM |  |  |
| CN1CCC(Oc2cccc(C(=O)Nc3cc4nc(-c5cnco5)ccc4cn3)c2)CC1 [Compound 591, 3-((1-Methylpiperidin-4-yl)oxy)-N-(2-(oxazol-5-yl)-1,6-naphthyridin-7-yl)benzamide] | > 10 µM | 3.25 µM | > 10 µM | 13.3% | > 10 µM | > 10 µM | 0% | 6.06 µM |  |  |
| CN1CCC(N(C)c2cc(C(=O)Nc3cc4cc(-c5cn(C)nn5)cnc4cn3)ccn2)CC1 [Compound 3102, 2-(Methyl(1-methylpiperidin-4-yl)amino)-N-(3-(1-methyl-1H-1,2,3-triazol-4-yl)-1,7-naphthyridin-6-yl)isonicotinamide] | > 10 µM | 6.91 µM | > 10 µM | 50% | 0.088 µM | > 10 µM | 0% | > 10 µM | 28.5% |  |
| CC(C)OCCC(=O)Nc1cc2cc(-c3cncn3C)cnc2cn1 [Compound 3136, 3-Isopropoxy-N-(3-(1-methyl-1H-imidazol-5-yl)-1,7-naphthyridin-6-yl) propanamide] | 0.982 µM | > 10 µM | 0.135 µM |  | 0.123 µM | > 10 µM | 9.8% | > 10 µM | 32% | 18.4% |
| Cc1nnc(-c2cnc3cnc(NC(=O)CN4C5CCC4CC5)cc3c2)s1 [Compound 3446, 2-(7-Azabicyclo[2.2.1]heptan-7-yl)-N-(3-(5-methyl-1,3,4-thiadiazol-2-yl)-1,7-naphthyridin-6-yl)acetamide] | > 10 µM | > 10 µM | > 10 µM | 16.9% | 2.09 µM | > 10 µM | 5.8% | > 10 µM | 29.9% | 16.1% |
| CCN(CC)CC(=O)Nc1cc2nc(-c3cnn(C)c3CN3CCCCC3)ccc2cn1 [Compound 283, 2-(Diethylamino)-N-(2-(1-methyl-5-(piperidin-1-ylmethyl)-1H-pyrazol-4-yl)-1,6-naphthyridin-7-yl)acetamide] | 1.18 µM | 4.24 µM | 3.91 µM |  | 0.698 µM | > 10 µM | 7.4% | > 10 µM | 43.6% |  |
| Cc1nnc(-c2ccc3cnc(NC(=O)CN4C5CCC4COC5)nc3c2)s1 [Compound 1634, 2-(3-Oxa-8-azabicyclo[3.2.1]octan-8-yl)-N-(7-(5-methyl-1,3,4-thiadiazol-2-yl)quinazolin-2-yl)acetamide] | 0.224 µM | > 10 µM | > 10 µM | 18.3% | 0.342 µM | > 10 µM | 5.4% | > 10 µM | 16.4% | 13.7% |
| Cc1nnc(-c2cc3cc(NC(=O)c4ccnc(N5CCN(C)CC5)c4)ncc3cn2)s1 [Compound 4377, N-(6-(5-Methyl-1,3,4-thiadiazol-2-yl)-2,7-naphthyridin-3-yl)-2-(4-methylpiperazin-1-yl)isonicotinamide] | > 10 µM | 5.4 µM | 2.96 µM |  | 0.253 µM | > 10 µM | 5.7% | > 10 µM | 28.6% |  |
| CCN(CC)CC(=O)Nc1ncc2ccc(-c3cnn(C)c3CN3CCCCC3)cc2n1 [Compound 1189, 2-(Diethylamino)-N-(7-(1-methyl-5-(piperidin-1-ylmethyl)-1H-pyrazol-4-yl)quinazolin-2-yl)acetamide] | 1.69 µM | > 10 µM | > 10 µM | 18% | 0.186 µM | > 10 µM | 7.9% | > 10 µM | 29.5% | 17.4% |
| CNC(=O)c1ccc(C(=O)Nc2cc3cc(-c4cn(C)nn4)cnc3cn2)cn1 [Compound 3092, N^2-Methyl-N-(3-(1-methyl-1H-1,2,3-triazol-4-yl)-1,7-naphthyridin-6-yl) pyridine-2,5-dicarboxamide] | > 10 µM | > 10 µM | > 10 µM | 13.3% | 0.269 µM | > 10 µM | 7.4% | 2.28 µM |  | 10.5% |
| CN1CCC(Oc2ccc(C(=O)Nc3ncc4ccc(-c5cnn(C)c5)cc4n3)cc2)CC1 [Compound 1052, N-(7-(1-Methyl-1H-pyrazol-4-yl)quinazolin-2-yl)-4-((1-methylpiperidin-4-yl)oxy)benzamide] | 9.43 µM | 5.37 µM | 8.74 µM |  | 0.035 µM | > 10 µM | 3.8% | 3.15 µM |  |  |
| CN1CCCN(CC(=O)Nc2ncc3ccc(-c4cnn(C)c4)cc3n2)CC1 [Compound 1013, 2-(4-Methyl-1,4-diazepan-1-yl)-N-(7-(1-methyl-1H-pyrazol-4-yl)quinazolin-2-yl)acetamide] | 0.532 µM | > 10 µM | > 10 µM | 12.4% | 0.075 µM | > 10 µM | 3.1% | > 10 µM | 0% | 10.5% |
| CN(C)CCNc1cc(C(=O)Nc2cc3cc(-c4cnn(C)c4)cnc3cn2)ccn1 [Compound 2884, 2-((2-(Dimethylamino)ethyl)amino)-N-(3-(1-methyl-1H-pyrazol-4-yl)-1,7-naphthyridin-6-yl)isonicotinamide] | > 10 µM | 3.88 µM | 5.24 µM |  | 0.049 µM | > 10 µM | 9.4% | > 10 µM | 44.1% |  |
| Cc1nnc(-c2cnc3cnc(NC(=O)c4ccnc(SC5CCN(C)CC5)c4)cc3c2)s1 [Compound 3474, N-(3-(5-Methyl-1,3,4-thiadiazol-2-yl)-1,7-naphthyridin-6-yl)-2-((1-methylpiperidin-4-yl)thio)isonicotinamide] | > 10 µM | > 10 µM | > 10 µM | 37% | 0.071 µM | > 10 µM | 3.9% | > 10 µM | 1.9% | 17.1% |
| COC1CCN(CC(=O)Nc2cc3cc(-c4cn(C)nn4)ncc3cn2)CC1 [Compound 3985, 2-(4-Methoxypiperidin-1-yl)-N-(6-(1-methyl-1H-1,2,3-triazol-4-yl)-2,7-naphthyridin-3-yl)acetamide] | 1.24 µM | > 10 µM | 8.38 µM |  | 0.751 µM | > 10 µM | 5.2% | > 10 µM | 49.8% | 34.9% |
| CN1CCN(Cc2cccc(C(=O)Nc3cc4cc(-c5cnn(C)c5)cnc4cn3)c2)CC1 [Compound 2892, N-(3-(1-Methyl-1H-pyrazol-4-yl)-1,7-naphthyridin-6-yl)-3-((4-methylpiperazin-1-yl)methyl)benzamide] | > 10 µM | > 10 µM | 3.96 µM |  | 0.039 µM | > 10 µM | 16.5% | > 10 µM | 46.9% | 36% |
| Cc1nnc(-c2cnc3cnc(NC(=O)c4ccnc(N5CCN(C)CC5)c4)cc3c2)s1 [Compound 3470, N-(3-(5-Methyl-1,3,4-thiadiazol-2-yl)-1,7-naphthyridin-6-yl)-2-(4-methylpiperazin-1-yl)isonicotinamide] | > 10 µM | 3.96 µM | 3.23 µM |  | 0.11 µM | > 10 µM | 9.4% | 5.48 µM |  |  |
| Cn1cc(-c2ccc3cnc(NC(=O)C(C)(C)F)nc3c2)nn1 [Compound 1239, 2-Fluoro-2-methyl-N-(7-(1-methyl-1H-1,2,3-triazol-4-yl)quinazolin-2-yl) propanamide] | 0.112 µM | > 10 µM | > 10 µM | 13.5% | 0.171 µM | > 10 µM | 7.3% | > 10 µM | 47.4% | 17.2% |
